The record followed here is ChEMBL document CHEMBL3045695, “2D and 3D QSAR analyses to predict favorable substitution sites in anilino-monoindolylmaleimides acting as PKCII selective inhibitors” (Med Chem Res, 2011).

pIC50: −log10 of the molar value.

The target of one assay is Protein kinase C beta type (Homo sapiens, UniProt P05771). Nature of the assay: Inhibition of PKCbeta2 (unknown origin). The conditions noted are these: read-out: IC50.
Chain of Protein kinase C beta type (P05771 whole entry): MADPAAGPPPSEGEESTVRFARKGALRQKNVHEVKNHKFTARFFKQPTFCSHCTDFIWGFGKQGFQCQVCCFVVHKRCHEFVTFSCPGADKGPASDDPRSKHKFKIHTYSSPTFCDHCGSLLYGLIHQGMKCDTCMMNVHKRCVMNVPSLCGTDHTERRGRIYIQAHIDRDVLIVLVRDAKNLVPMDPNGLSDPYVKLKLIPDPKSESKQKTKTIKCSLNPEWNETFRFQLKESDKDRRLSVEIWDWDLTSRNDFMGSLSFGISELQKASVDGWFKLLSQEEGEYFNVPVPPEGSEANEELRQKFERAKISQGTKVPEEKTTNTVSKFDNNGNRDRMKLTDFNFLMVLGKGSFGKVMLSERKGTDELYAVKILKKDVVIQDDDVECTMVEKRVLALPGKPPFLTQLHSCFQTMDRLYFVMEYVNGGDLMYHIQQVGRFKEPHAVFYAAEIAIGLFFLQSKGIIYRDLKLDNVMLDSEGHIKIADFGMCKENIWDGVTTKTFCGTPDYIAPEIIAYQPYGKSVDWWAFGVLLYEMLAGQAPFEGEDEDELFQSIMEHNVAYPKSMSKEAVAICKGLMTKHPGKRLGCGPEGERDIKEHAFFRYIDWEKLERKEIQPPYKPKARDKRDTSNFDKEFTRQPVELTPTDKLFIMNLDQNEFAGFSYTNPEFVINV
For the compound `CCNC[C@H]1Cc2c(C3=C(Nc4ccccc4)C(=O)NC3=O)c3ccccc3n2C1`, the pIC50 is 8.62. Still for that read-out and setting: with `NC[C@H]1Cc2c(C3=C(Nc4ccccc4)C(=O)NC3=O)c3ccccc3n2C1` the figure was 8.85; with `CC(=O)NC[C@H]1Cc2c(C3=C(Nc4ccccc4)C(=O)NC3=O)c3ccccc3n2C1`, 8.10; with `O=C1NC(=O)C(c2c3n(c4ccccc24)C[C@H](CO)C3)=C1Nc1ccccc1`, 7.85.

Take `CN(C)C[C@@H]1Cc2c(C3=C(Nc4ccccc4)C(=O)NC3=O)c3ccccc3n2C1`: the pIC50 was 8.10. The same measure, in the same setting: for `O=C1NC(=O)C(c2c3n(c4ccccc24)CC[C@H](CO)C3)=C1Nc1ccccc1` the value was 8.22. The same measure, in the same setting: with `CN(C)C[C@H]1CCn2c(c(C3=C(Nc4ccccc4)C(=O)NC3=O)c3ccccc32)C1` the figure was 8.70; with `O=C1NC(=O)C(c2c3n(c4ccccc24)CC[C@@H](CO)C3)=C1Nc1ccccc1`, 7.77. The same measure, in the same setting: for `CN(C)C[C@@H]1CCn2c(c(C3=C(Nc4ccccc4)C(=O)NC3=O)c3ccccc32)C1` the value was 7.60; for `CN(C)C[C@@H]1CCc2c(C3=C(Nc4ccccc4)C(=O)NC3=O)c3ccccc3n2C1`, 8.22; for `CCN(CC)C[C@H]1Cc2c(C3=C(Nc4ccccc4)C(=O)NC3=O)c3ccccc3n2C1`, 7.49.

Regarding `CCN(C)C[C@H]1Cc2c(C3=C(Nc4ccccc4)C(=O)NC3=O)c3ccccc3n2C1`, the pIC50 was 8.30. Still for that read-out and setting: for `CNC[C@H]1Cc2c(C3=C(Nc4ccccc4)C(=O)NC3=O)c3ccccc3n2C1` the value was 8.66.

Staying with this assay, now noted: read-out: pIC50 (converted).
On to `CN1CCN(CCCn2cc(C3=C(Nc4ccccc4)C(=O)NC3=O)c3ccccc32)CC1`, for which the IC50 was 23.4 nM. Same read-out and setting: with `CN(C)CCCCCn1cc(C2=C(Nc3ccccc3)C(=O)NC2=O)c2ccccc21` the figure was 41.7 nM; with `COc1cccc(NC2=C(c3c[nH]c4ccccc34)C(=O)NC2=O)c1`, 759 nM; with `Cc1ccc(NC2=C(c3c[nH]c4ccccc34)C(=O)NC2=O)cc1`, 490 nM. The same measure, in the same setting: with `O=C1NC(=O)C(c2cn(CCCN3CCCCC3)c3ccccc23)=C1Nc1ccccc1` the figure was 17.4 nM. Still for that read-out and setting: for `O=C1NC(=O)C(c2c[nH]c3ccccc23)=C1Nc1cccc(C(F)(F)F)c1` the value was 1480 nM; for `Cc1ccccc1NC1=C(c2c[nH]c3ccccc23)C(=O)NC1=O`, 2190 nM. With `N=C(N)SCCCn1cc(C2=C(Nc3ccccc3)C(=O)NC2=O)c2ccccc21`, the IC50 was 2.04 nM.
